Measurements published in patent publication US6994868B2, “Compositions useful as inhibitors of ERK” (Vertex Pharmaceuticals Incorporated, priority 2000, dated 2006).
pKi: −log10 of the molar value.

biological target: activated ERK2 (Homo sapiens, UniProt P28482); assay: ERK inhibition assay (spectrophotometric coupled-enzyme assay); type: biochemical; settings: activated ERK2 10 nM, 65 μM ATP, 200 μM erktide peptide, 30° C., pH 7.5; read-out: ERK2 Inhibitory Activity (Ki class)
Sequence (P28482 whole entry): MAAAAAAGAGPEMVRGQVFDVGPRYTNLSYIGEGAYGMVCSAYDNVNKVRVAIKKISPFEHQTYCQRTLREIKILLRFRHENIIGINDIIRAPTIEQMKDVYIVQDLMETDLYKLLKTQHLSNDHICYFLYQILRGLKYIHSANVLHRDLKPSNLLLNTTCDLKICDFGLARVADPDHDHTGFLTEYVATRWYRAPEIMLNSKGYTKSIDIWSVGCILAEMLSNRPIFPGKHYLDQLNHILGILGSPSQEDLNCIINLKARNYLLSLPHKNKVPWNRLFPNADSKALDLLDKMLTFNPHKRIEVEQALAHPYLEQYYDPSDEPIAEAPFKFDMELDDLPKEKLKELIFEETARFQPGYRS

`O=C(c1cc(-c2[nH]ncc2-c2ccccc2)c[nH]1)N1CCCC1` [II-A-134] and `O=C(c1cc(-c2[nH]ncc2-c2ccccc2)c[nH]1)N1CCOCC1` [II-A-150] fall in the same range of pKi: 5.30 to 6.00 for the first, 5.30 to 6.00 for the second.

`O=C(NCc1ccccc1)c1cc(-c2[nH]ncc2-c2cccc(F)c2F)c[nH]1` [II-A-103] and `O=C(NCc1ccccc1)c1cc(-c2[nH]ncc2-c2cccc(Cl)c2F)c[nH]1` [II-A-82] cannot be ordered by pKi: greater than 6.00 for the first, greater than 6.00 for the second.

`O=C(NCc1ccncc1)c1cc(-c2[nH]ncc2-c2cccc(F)c2)c[nH]1` [II-A-80] and `COc1ccccc1CNC(=O)c1cc(-c2[nH]ncc2-c2cccc(F)c2)c[nH]1` [II-A-63] cannot be ordered by pKi: greater than 6.00 for the first, greater than 6.00 for the second.

`COc1cccc(-c2cn[nH]c2-c2c[nH]c(C(=O)N(C)C)c2)c1` [II-A-154] and `COc1cccc(-c2cn[nH]c2-c2c[nH]c(C(=O)N3CCCC3)c2)c1` [II-A-144] fall in the same range of pKi: 5.30 to 6.00 for the first, 5.30 to 6.00 for the second.

`O=C(NCc1ccco1)c1cc(-c2[nH]ncc2-c2ccccc2)c[nH]1` [II-A-149] and `COc1cccc(-c2cn[nH]c2-c2c[nH]c(C(=O)NCc3ccco3)c2)c1` [II-A-147] fall in the same range of pKi: 5.30 to 6.00 for the first, 5.30 to 6.00 for the second.

`O=C(NCc1cccnc1)c1cc(-c2[nH]ncc2-c2ccccc2)c[nH]1` [II-A-153] and `COc1cccc(-c2cn[nH]c2-c2c[nH]c(C(=O)NCc3cccnc3)c2)c1` [II-A-145] fall in the same range of pKi: 5.30 to 6.00 for the first, 5.30 to 6.00 for the second.

Compared with `COc1cccc(-c2cn[nH]c2-c2c[nH]c(C(=O)N3CCC(C)CC3)c2)c1` [II-A-163], `CC(C)NC(=O)c1cc(-c2[nH]ncc2-c2ccccc2)c[nH]1` [II-A-158] is higher in pKi: less than 5.30 for the first, 5.30 to 6.00 for the second.

With `O=C(NCc1ccccc1)c1cc(-c2[nH]ncc2-c2ccc(F)c(F)c2)c[nH]1` [II-A-85] the pKi was greater than 6.00.
